The source of these data is patent US20230286973A1, “PROTEIN SECRETION INHIBITORS” (KEZAR LIFE SCIENCES, priority 2020, published 2023).

Where only a bound is given, the exact number is not on record here.

The subject of data set [1] is multiple myeloma cell line U266B1. Description: U266 Cell Viability Assay. Format: cell-based, human. The note with it: Homo sapiens, U-266, 48 h, U266B1 cells, Celltiter-Glo. In outline: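 Steps: culture in RPMI 1640 plus 10% FBS and 2 mM glutamine; plate and add compound dilutions; incubate 48 hours at 37° C., 5% CO2; add CellTiter-Glo and quantify luciferase signal.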

Data set [2] deals with PD1-ss+10aa/Gaussia Luciferase. Description: Dox-Induced PD1-ss-Gluc Assay. Format: cell-based. Conditions: 24 hr Dox induction; 293FRT/TO cells; read-out: 24 hr Dox Inducible PD1ssGluc 293FRT/TO: Mean IC50. In outline: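 Flp-In 293 T-REx cells stably carrying a doxycycline-inducible Gaussia luciferase fused to the PD1 signal sequence plus 10 aa were plated the day before. Compound dilutions in DMSO/media containing doxycycline were then added and incubated at 37 °C, 5% CO2. Data for undefined stereochemistry refer to stereoisomer mixtures.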

Data set [3] deals with HER3-ss+4aa/Gaussia Luciferase. As to the kind of experiment: Dox-Induced Her3-ss-Gluc Assay. Format: cell-based. The note with it: 24 hr Dox induction; 293FRT/TO cells; read-out: 24 hr Dox Inducible Her3(ss + 4)Gluc 293FRT/TO: Mean IC50. In outline: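 Cells were seeded a day ahead, then given compound diluted in DMSO/media with doxycycline to induce expression of the HER3 signal sequence (+4 aa)–Gaussia luciferase fusion. Incubation was at 37° C., 5% CO2, in a stable Flp-In 293 T-REx line.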

Data set [4] deals with IL-2-FL/Gaussia Luciferase. Description: Dox Induced IL2-FL-Gluc Assay. Format: cell-based. The note with it: for IC50: 24 hr Dox induction, 293FRT/TO cells, read-out: 24 hr Dox Inducible IL2FLGluc 293FRT/TO: Mean IC50; for 24 hr Dox Inducible IL2FLGluc 293FRT/TO: IL2/PD1: ratio of IL2FLGluc IC50 to PD1ssGluc IC50. The method in brief: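 Cells are plated one day ahead, then receive compound dilutions in DMSO/media with doxycycline and incubate at 37° C, 5% CO2. They are Flp-In 293 T-REx cells expressing a full-length IL-2 (amino acids 1-153)–Gaussia luciferase fusion under T-REx control.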

Data set [5] in a line: Liver Microsome Stability Assay (human). Conditions: human liver microsomes, with NADPH, 1.0 uM compound.
Method: (§1) Stability of a compound was assessed in the presence of liver microsomes from various sources—mouse, rat, monkey and human liver microsomes. 1.0 uM compound, 0.4% DMSO in 0.1 M Potassium Phosphate with 1.0 mg/mL liver microsomes, were incubated at 37° C. with or without 1 mM NADPH. The samples were quenched at 0, and 30 minutes.
Data set [6] has as its system multiple myeloma cell line NCI-H929. As to the kind of experiment: H929 Cell Viability Assay. Format: cell-based, human. Conditions: Homo sapiens, NCI-H929, 48 h, NCI-H929 cells, Celltiter-Glo. In outline: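 Luminescent ATP detection (CellTiter-Glo) after 48 hours of compound exposure measures viability. Cells were plated in RPMI 1640 containing 10% fetal bovine serum and kept at 37° C under 5% CO2.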

Data set [7] can be described thus: Liver Microsome Stability Assay (monkey). Conditions: monkey liver microsomes, with NADPH, 1.0 uM compound.
Method: as §1
The nature of data set [8]: Liver Microsome Stability Assay (mouse). The note with it: mouse liver microsomes, with NADPH, 1.0 uM compound.
Method: as §1
Data set [9] in a line: Liver Microsome Stability Assay (rat). The note with it: rat liver microsomes, with NADPH, 1.0 uM compound.
Method: as §1
Data set [10] relates to TNFα-FL/Gaussia Luciferase. Description: Dox Induced TNFα-FL-Gluc Assay. Format: cell-based. Conditions: for IC50: 24 hr Dox induction, 293FRT/TO cells, read-out: 24 hr Dox Inducible TNFaFLGluc 293FRT/TO: Mean IC50; for 24 hr Dox Inducible TNFaFLGluc 293FRT/TO: TNF/PD1: ratio of TNFaFLGluc IC50 to PD1ssGluc IC50. The method in brief:
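Stereoisomer mixtures were tested where stereochemistry is not drawn. Induction used doxycycline added together with compound dilutions in DMSO/media to Flp-In 293 T-REx cells carrying a T-REx-regulated TNFα (aa 1-233)-Gaussia luciferase construct, then incubated at 37 °C, 5% CO2.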

In the case of `CC(=O)N1CCC(C(C)c2ccc(N3CCC[C@@H]3c3csc(NC(=O)c4cccn4Cc4ccnc(F)c4)n3)cc2)CC1` (stereo partly drawn) [Compound A161, N-(4-((2R)-1-(4-(1-(1-acetylpiperidin-4-yl)ethyl)phenyl)pyrrolidin-2-yl)thiazol-2-yl)-1-((2-fluoropyridin-4-yl)methyl)-1H-pyrrole-2-carboxamide], the EC50 in data set [1] was over 25000 nM; in [6], 12400 nM. In addition, the IC50 in data set [2] was found to be 284 nM; in [3], 406 nM; in data set [4], 640 nM; in data set [10] it was 4000 nM. Besides, in [4], the “24 hr Dox Inducible IL2FLGluc 293FRT/TO: IL2/PD1” value was 2.3. Also, the “Liver Microsome Stability (Multiple Species): Human - % Remaining after 30 min w/NADPH” value in data set [5] is given as 1.04%. Besides, the “Liver Microsome Stability (Multiple Species): Monkey - % Remaining after 30 min w/NADPH” value in [7] is recorded as 0.12%. Besides, in data set [8], the “Liver Microsome Stability (Multiple Species): Mouse - % Remaining after 30 min w/NADPH” value is on record as 0.42%. For the same molecule, the “Liver Microsome Stability (Multiple Species): Rat - % Remaining after 30 min w/NADPH” value in data set [9] is 7.32%. In addition, the “24 hr Dox Inducible TNFaFLGluc 293FRT/TO: TNF/PD1” value in data set [10] is 14.1.
For the molecule `O=C(Nc1nc([C@H]2CCCN2c2ccc(C3(O)CCC3)cc2)cs1)c1cccn1Cc1ccnc(F)c1` [Compound A114, (R)-1-((2-fluoropyridin-4-yl)methyl)-N-(4-(1-(4-(1-hydroxycyclobutyl)phenyl)pyrrolidin-2-yl)thiazol-2-yl)-1H-pyrrole-2-carboxamide], the EC50 in data set [1] is over 25000 nM; in [6] it was 1020 nM. Besides, the IC50 in [2] amounted to 36.1 nM; in data set [3], 87.8 nM; in data set [4], 54.9 nM; in data set [10] it was 551 nM. Besides, the “24 hr Dox Inducible IL2FLGluc 293FRT/TO: IL2/PD1” value in [4] was 1.5. Also, in [5], the “Liver Microsome Stability (Multiple Species): Human - % Remaining after 30 min w/NADPH” value is reported as 3.96%. Further, the “Liver Microsome Stability (Multiple Species): Monkey - % Remaining after 30 min w/NADPH” value in [7] is 0.43%. In addition, the “Liver Microsome Stability (Multiple Species): Mouse - % Remaining after 30 min w/NADPH” value in data set [8] worked out at 13%. Besides, the “Liver Microsome Stability (Multiple Species): Rat - % Remaining after 30 min w/NADPH” value in [9] was found to be 8.6%. In data set [10], the “24 hr Dox Inducible TNFaFLGluc 293FRT/TO: TNF/PD1” value came out at 15.2.
As for `O=C(Nc1nc([C@H]2CCCN2c2ccc(O[C@@H]3CCCNC3)cc2)cs1)c1cccn1Cc1ccnc(F)c1` [Compound A87, 1-((2-fluoropyridin-4-yl)methyl)-N-(4-((R)-1-(4-(((R)-piperidin-3-yl)oxy)phenyl)pyrrolidin-2-yl)thiazol-2-yl)-1H-pyrrole-2-carboxamide], the 50% effective concentration (EC50) in data set [1] worked out at 8830 nM; in data set [6], 6310 nM. For the same molecule, the IC50 in data set [2] amounted to 636 nM; in [3] it was 1150 nM; in data set [4], 2580 nM; in data set [10], 21500 nM. For the same molecule, the “24 hr Dox Inducible IL2FLGluc 293FRT/TO: IL2/PD1” value in [4] was found to be 4.1. In data set [5], the “Liver Microsome Stability (Multiple Species): Human - % Remaining after 30 min w/NADPH” value turned out to be 51.1%. In data set [7], the “Liver Microsome Stability (Multiple Species): Monkey - % Remaining after 30 min w/NADPH” value amounted to 32.6%. Besides, in [8], the “Liver Microsome Stability (Multiple Species): Mouse - % Remaining after 30 min w/NADPH” value came to 75.6%. The “Liver Microsome Stability (Multiple Species): Rat - % Remaining after 30 min w/NADPH” value in [9] was found to be 61.8%. Besides, the “24 hr Dox Inducible TNFaFLGluc 293FRT/TO: TNF/PD1” value in data set [10] came to 33.8.
Turning to `CC(=O)N1CCC(Oc2ccc(N3CCC[C@@H]3c3csc(NC(=O)c4cccn4Cc4ccnc(F)c4)n3)cc2C#N)CC1` [Compound A126, (R)-N-(4-(1-(4-((1-acetylpiperidin-4-yl)oxy)-3-cyanophenyl)pyrrolidin-2-yl)thiazol-2-yl)-1-((2-fluoropyridin-4-yl)methyl)-1H-pyrrole-2-carboxamide], the EC50 in data set [1] is over 25000 nM; in data set [6] it was 1130 nM. Also, the IC50 was determined as 59.5 nM in [2], 5.03 nM in [3], 72.5 nM in data set [4] and 414 nM in data set [10]. For the same molecule, the “24 hr Dox Inducible IL2FLGluc 293FRT/TO: IL2/PD1” value in [4] stood at 1.2. For the same molecule, the “Liver Microsome Stability (Multiple Species): Human - % Remaining after 30 min w/NADPH” value in data set [5] was 1.21%. For the same molecule, the “Liver Microsome Stability (Multiple Species): Monkey - % Remaining after 30 min w/NADPH” value in data set [7] amounted to 0.92%. Moreover, the “Liver Microsome Stability (Multiple Species): Mouse - % Remaining after 30 min w/NADPH” value in [8] worked out at 17.7%. For the same molecule, the “Liver Microsome Stability (Multiple Species): Rat - % Remaining after 30 min w/NADPH” value in [9] was 0.78%. Also, the “24 hr Dox Inducible TNFaFLGluc 293FRT/TO: TNF/PD1” value in data set [10] turned out to be 6.97.
Consider `CC(C)c1cc(/C=C/c2csc(NC(=O)c3cccn3Cc3ccnc(F)c3)n2)n(C)n1` [Compound B94, (E)-1-((2-fluoropyridin-4-yl)methyl)-N-(4-(2-(3-isopropyl-1-methyl-1H-pyrazol-5-yl)vinyl)thiazol-2-yl)-1H-pyrrole-2-carboxamide], for which the EC50 in data set [1] and in [6] was over 25000 nM throughout. Further, the IC50 in data set [2] was 1020 nM; in data set [3], 877 nM; in [4], over 25000 nM; in data set [10], over 25000 nM. The “24 hr Dox Inducible IL2FLGluc 293FRT/TO: IL2/PD1” value in data set [4] was over 24. Also, in data set [5], the “Liver Microsome Stability (Multiple Species): Human - % Remaining after 30 min w/NADPH” value worked out at 0.55%. For the same molecule, the “Liver Microsome Stability (Multiple Species): Monkey - % Remaining after 30 min w/NADPH” value in [7] is given as 0.06%. Further, in data set [8], the “Liver Microsome Stability (Multiple Species): Mouse - % Remaining after 30 min w/NADPH” value amounted to 20%. Further, the “Liver Microsome Stability (Multiple Species): Rat - % Remaining after 30 min w/NADPH” value in data set [9] stood at 31.1%. Also, the “24 hr Dox Inducible TNFaFLGluc 293FRT/TO: TNF/PD1” value in data set [10] was over 24.5.
As for `Cc1nc(/C=C/c2csc(NC(=O)c3cccn3Cc3ccncc3)n2)cn1C` [Compound B51, (E)-N-(4-(2-(1,2-dimethyl-1H-imidazol-4-yl)vinyl)thiazol-2-yl)-1-(pyridin-4-ylmethyl)-1H-pyrrole-2-carboxamide], the EC50 in [1] and in data set [6] was over 25000 nM each time. Besides, the IC50 in [2] was 5380 nM; in data set [3], over 25000 nM; in [4], over 25000 nM; in data set [10], over 25000 nM. Moreover, the “24 hr Dox Inducible IL2FLGluc 293FRT/TO: IL2/PD1” value in data set [4] was over 4.6. The “Liver Microsome Stability (Multiple Species): Human - % Remaining after 30 min w/NADPH” value in [5] amounted to 0.21%. Also, the “Liver Microsome Stability (Multiple Species): Monkey - % Remaining after 30 min w/NADPH” value in data set [7] worked out at 0.27%. Also, in data set [8], the “Liver Microsome Stability (Multiple Species): Mouse - % Remaining after 30 min w/NADPH” value stood at 6.7%. The “Liver Microsome Stability (Multiple Species): Rat - % Remaining after 30 min w/NADPH” value in data set [9] was found to be 1.43%. The “24 hr Dox Inducible TNFaFLGluc 293FRT/TO: TNF/PD1” value in data set [10] is over 4.65.
`O=C(Nc1nc(/C=C/C2CN(c3ccccc3)CCO2)cs1)c1cccn1Cc1ccncc1` (stereo not drawn) [Compound B18, (E)-N-(4-(2-(4-phenylmorpholin-2-yl)vinyl)thiazol-2-yl)-1-(pyridin-4-ylmethyl)-1H-pyrrole-2-carboxamide]: the EC50 in data set [1] and in data set [6] was over 25000 nM in each case. Besides, the IC50 in [2] was 88.2 nM; in [3], 1100 nM; in [4] it was 1560 nM; in [10] it was 4700 nM. Also, the “24 hr Dox Inducible IL2FLGluc 293FRT/TO: IL2/PD1” value in data set [4] was 18. Further, the “Liver Microsome Stability (Multiple Species): Human - % Remaining after 30 min w/NADPH” value in data set [5] came out at 0.82%. Also, the “Liver Microsome Stability (Multiple Species): Monkey - % Remaining after 30 min w/NADPH” value in [7] amounted to 0.38%. Further, in data set [8], the “Liver Microsome Stability (Multiple Species): Mouse - % Remaining after 30 min w/NADPH” value amounted to 3.02%. Moreover, the “Liver Microsome Stability (Multiple Species): Rat - % Remaining after 30 min w/NADPH” value in data set [9] amounted to 2.09%. Further, the “24 hr Dox Inducible TNFaFLGluc 293FRT/TO: TNF/PD1” value in data set [10] is 53.3.
